Patent publication US20090285774A1, “Hepatitis C Virus Inhibitors” (Bristol-Myers Squibb Company, priority 2008, published 2009)
Like-named read-outs stand apart in the source and are kept apart here.

How the values were obtained:
[1] = tested on: HCV replicon (strain 1b) in HUH-7 cells; experiment: HCV replicon FRET assay; type: cell-based; conditions: Hepatitis C virus
Excerpt: An HCV replicon whole cell system was established as described by Lohmann V, Korner F, Koch J, Herian U, Theilmann L, Bartenschlager R., Science 285(5424):110-3 (1999). This system enabled us to evaluate the effects of our HCV Protease compounds on HCV RNA replication. Briefly, using the HCV strain 1b sequence described in the Lohmann paper (Assession number: AJ238799), an HCV cDNA was synthesized by Operon Technologies, Inc. (Alameda, Calif.), and the full-length replicon was then assembled in plasmid pGem9zf(+) (Promega, Madison, Wis.) using standard molecular biology techniques. The replicon consists of (i) the HCV 5′ UTR fused to the first 12 amino acids of the capsid protein, (ii) the neomycin phosphotransferase gene (neo), (iii) the IRES from encephalomyocarditis virus (EMCV), and (iv) HCV NS3 to NS5B genes and the HCV 3′ UTR. Plasmid DNAs were linearized with ScaI and RNA transcripts were synthesized in vitro using the T7 MegaScript transcription kit (Aibion, Austin, Tex.) according to manufacturer's directions. In vitro transcripts of the cDNA were transfected into the human hepatoma cell line, HUH-7. […] Resulting cell lines were characterized for positive and negative strand RNA production and protein production over time.
The HCV replicon FRET assay was developed to monitor the inhibitory effects of compounds described in the disclosure on NCV viral replication. HUH-7 cells, constitutively expressing the HCV replicon, were grown in Dulbecco's Modified Eagle Media (DMEM) (Gibco-BRL) containing 10% Fetal calf serum (FCS) (Sigma) and 1 mg/ml G418 (Gibco-BRL). Cells were seeded the night before (1.5×10^4 cells/well) in 96-well tissue-culture sterile plates. Compound and no compound controls were prepared in DMEM containing 4% FCS, 1:100 Penicillin/Streptomysin (Gibco-BRL), 1:100 L-glutamine and 5% DMSO in the dilution plate (0.5% DMSO final concentration in the assay). Compound/DMSO mixes were added to the cells and incubated for 4 days at 37° C. After 4 days, cells were first assessed for cytotoxicity using alamar Blue (Trek Diagnotstic Systems) for a CC50 reading. The toxicity of compound (CC50) was determined by adding 1/10th volume of alamar Blue to the media incubating the cells. After 4 h, the fluorescence signal from each well was read, with an excitation wavelength at 530 nm and an emission wavelength of 580 nm, using the Cytofluor Series 4000 (Perspective Biosystems). Plates were then rinsed thoroughly with Phosphate-Buffered Saline (PBS) (3 times 150 μl).

[2] = biological target: T1, HCV NS3/4A protease complex, BMS strain (genotype 1a) (UniProt P27958, species not given/STRAIN_BMS); experiment: FRET peptide assay to monitor HCV NS3/4A proteolytic activity (BMS strain); type: biochemical
T1 construct: DNA encoding the recombinant HCV NS3/4A protease complex (amino acids 1027 to 1711) for these strains [given for H77 and J4L6S only]; These are given only for the H77 and J4L6S constructs
Excerpt: (§1) HCV NS3 protease complexes, derived from the BMS strain, H77 strain or J4L6S strain, were generated, as described below. These purified recombinant proteins were generated for use in a homogeneous assay (see below) to provide an indication of how effective compounds of the present disclosure would be in inhibiting HCV NS3 proteolytic activity.
Serum from an HCV-infected patient was obtained from Dr. T. Wright, San Francisco Hospital. An engineered full-length cDNA (compliment deoxyribonucleic acid) template of the HCV genome (BMS strain) was constructed from DNA fragments obtained by reverse transcription-PCR (RT-PCR) of serum RNA (ribonucleic acid) and using primers selected on the basis of homology between other genotype 1a strains. From the determination of the entire genome sequence, a genotype 1a was assigned to the HCV isolate according to the classification of Simmonds et al. (See P Simmonds, K A Rose, S Graham, S W Chan, F McOmish, B C Dow, E A Follett, P L Yap and H Marsdeni, J. Clin. Microbiol., 31(6):1493-1503 (1993)). […] The infectious clones, H77 (1a genotype) and J4L6S (1b genotype) were obtained from R. Purcell (NIH) and the sequences are published in Genbank (AAB67036, see Yanagi, M., Purcell, R. H., Emerson, S. U. and Bukh, J. Proc. Natl. Acad. Sci. U.S.A. 94(16):8738-8743 (1997); AF054247, see Yanagi, M., St Claire, M., Shapiro, M., Emerson, S. U., Purcell, R. H. and Bukh, J, Virology 244 (1), 161-172. (1998)).
The H77 and J4L6S strains were used for production of recombinant NS3/4A protease complexes. DNA encoding the recombinant HCV NS3/4A protease complex (amino acids 1027 to 1711) for these strains were manipulated as described by P. Gallinari et al. (see Gallinari P, Paolini C, Breruian D, Nardi C, Steinlkuhler C, De Francesco R. Biochemistry. 38(17);5620-32, (1999)). Briefly, a three-lysine solubilizing tail was added at the 3′-end of the NS4A coding region. The cysteine in the P1 position of the NS4A-NS4B cleavage site (amino acid 1711) was changed to a glycine to avoid the proteolytic cleavage of the lysine tag. Furthermore, a cysteine to serine mutation was introduced by PCR at amino acid position 1454 to prevent the autolytic cleavage in the NS3 helicase domain. The variant DNA fragment was cloned in the pET21b bacterial expression vector (Novagen) and the NS3/4A complex was expressed in Escherichia. coli strain BL21 (DE3) (Invitrogen) following the protocol described by P. Gallinari et al. (see Gallinari P, Breinan D, Nardi C, Brunetti M, Tomei L, Steinkuhler C, De Francesco R., J Virol. 72(8):6758-69 (1998)) with modifications. Briefly, the NS3/4A protease complex expression was induced with 0.5 millimolar (mM) Isopropyl β-D-1-thiogalactopyranoside (IPTG) for 22 hours (h) at 20° C. A typical fermentation (1 Liter (L)) yielded approximately 10 grams (g) of wet cell paste. The cells were resuspended in lysis buffer (10 mL/g) consisting of 25 mM N-(2-Hydroxyethyl)Piperazine-N′-(2-Ethane Sulfonic acid) (HEPES), pH 7.5, 20% glycerol, 500 mM Sodium Chloride (NaCl), 0.5% Triton X-100, 1 microgram/milliliter (“μg/mL”) lysozyme, 5 mM Magnesium Chloride (MgCl2), 1 μg/ml DnaseI, 5mM β-Mercaptoethanol (βME), Protease inhibitor-Ethylenediamine Tetraacetic acid (EDTA) free (Roche), homogenized and incubated for 20 minutes (min) at 4° C. The homogenate was sonicated and clarified by ultra-centrifugation at 235000 g for 1 hour (h) at 4° C. Imidazole was added to the supernatant to a final concentration of 15 mM and the pH adjusted to 8.0. The crude protein extract was loaded on a Nickel-Nitrilotriacetic acid (Ni-NTA) column pre-equilibrated with buffer B (25 mM HEPES, pH 8.0, 20% glycerol, 500 mM NaCl, 0.5% Triton X-100, 15 mM imidazole, 5 mM βMB). The sample was loaded at a flow rate of 1 mL/min. The column was washed with 15 column volumes of buffer C (same as buffer B except with 0.2% Triton X-100). The protein was eluted with 5 column volumes of buffer D (same as buffer C except with 200 mM Imidazole). […]

[3] = tested on: human pancreatic chymotrypsin; experiment: Specificity assay, chymotrypsin; type: biochemical; conditions: read-out: Chymotrypsin activity in the specificity assays (IC50)
Experimental: (§2) The specificities of compounds of the present disclosure were determined against a variety of serine proteases: human neutrophil elastase (HNE), porcine pancreatic elastase (PPE) and human pancreatic chymotrypsin and one cysteine protease: human liver cathepsin B. In all cases a 96-well plate format protocol using a fluorometric Amino-Methyl-Coumarin (AMC) substrate specific for each enzyme was used as described previously (PCT Patent Application No. WO 00/09543) with some modifications to the serine protease assays. All enzymes were purchased from Sigma, EMDbiosciences while the substrates were from Bachem, Sigma and EMDbiosciences.
(§3) Compound concentrations varied from 100 to 0.4 μM depending on their potency. The enzyme assays were each initiated by addition of substrate to enzyme-inhibitor pre-incubated for 10 min at room temperature and hydrolysis to 15% conversion as measured on cytofluor. […]
(§4) The percentage of inhibition was calculated using the formula: […]

[4] = biological target: T2, HCV NS3/4A protease complex, H77 strain (1a genotype) (Hepatitis C virus genotype 1a, UniProt P27958, C1454S/C1711G); experiment: FRET peptide assay to monitor HCV NS3/4A proteolytic activity (H77 strain); type: biochemical
T2 construct: DNA encoding the recombinant HCV NS3/4A protease complex (amino acids 1027 to 1711) for these strains; inferred from pET21b vector and Ni-NTA purification; made in house; host or cells: Escherichia coli BL21 (DE3), pET21b
Excerpt: as §1
(§5) Serum from an HCV-infected patient was obtained from Dr. T. Wright, San Francisco Hospital. An engineered full-length cDNA (compliment deoxyribonucleic acid) template of the HCV genome (BMS strain) was constructed from DNA fragments obtained by reverse transcription-PCR (RT-PCR) of serum RNA (ribonucleic acid) and using primers selected on the basis of homology between other genotype 1a strains. From the determination of the entire genome sequence, a genotype 1a was assigned to the HCV isolate according to the classification of Simmonds et al. (See P Simmonds, K A Rose, S Graham, S W Chan, F McOmish, B C Dow, E A Follett, P L Yap and H Marsdeni, J. Clin. Microbiol., 31(6):1493-1503 (1993)). […]

[5] = biological target: T3, human neutrophil elastase (HNE) (Homo sapiens, UniProt P08246); experiment: Specificity assay, human neutrophil elastase; type: biochemical; conditions: read-out: HLE activity in the specificity assays (IC50)
T3 sequence (P08246 30-267): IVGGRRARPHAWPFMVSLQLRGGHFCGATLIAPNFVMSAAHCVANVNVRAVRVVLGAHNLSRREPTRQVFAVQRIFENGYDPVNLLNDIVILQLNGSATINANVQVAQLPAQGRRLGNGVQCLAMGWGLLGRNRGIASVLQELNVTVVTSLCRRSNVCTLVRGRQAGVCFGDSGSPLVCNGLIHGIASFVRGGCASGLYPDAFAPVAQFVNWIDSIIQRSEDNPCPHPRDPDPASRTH
Experimental: as §2, §3, §4

[6] = biological target: T4, HCV NS3/4A protease complex, J4L6S strain (1b genotype) (Hepatitis C virus genotype 1b, UniProt O92972, C1454S/C1711G); experiment: FRET peptide assay to monitor HCV NS3/4A proteolytic activity (J4L6S strain); type: biochemical
T4 construct: DNA encoding the recombinant HCV NS3/4A protease complex (amino acids 1027 to 1711) for these strains; inferred from pET21b vector and Ni-NTA purification; made in house; host or cells: Escherichia coli BL21 (DE3), pET21b
Excerpt: as §1, §5

human liver cathepsin B = biological target: T5, human liver cathepsin B (Homo sapiens, UniProt P07858); experiment: Specificity assay, cathepsin B; type: biochemical; conditions: read-out: Cathepsin B activity in the specificity assays (IC50)
T5 construct: host or cells: human liver (from the name)
Experimental: as §2, §3, §4

[7] = biological target: porcine pancreatic elastase (PPE) (Sus scrofa, UniProt P00772); experiment: Specificity assay, porcine pancreatic elastase; type: biochemical; conditions: read-out: PPE activity in the specificity assays (IC50)
Experimental: as §2, §3, §4

[8] = Huh-7, HCV replicon, value, read-out: EC50 (range or value)
[9] = NS3/4A BMS strain, value, read-out: IC50 (range or value)
[10] = Huh-7, HCV replicon, activity range, read-out: EC50 (range or value)
[11] = NS3/4A BMS strain, activity range, read-out: IC50 (range or value)

T1 sequence (P27958 1027-1657, stated change not applied, one chain of several): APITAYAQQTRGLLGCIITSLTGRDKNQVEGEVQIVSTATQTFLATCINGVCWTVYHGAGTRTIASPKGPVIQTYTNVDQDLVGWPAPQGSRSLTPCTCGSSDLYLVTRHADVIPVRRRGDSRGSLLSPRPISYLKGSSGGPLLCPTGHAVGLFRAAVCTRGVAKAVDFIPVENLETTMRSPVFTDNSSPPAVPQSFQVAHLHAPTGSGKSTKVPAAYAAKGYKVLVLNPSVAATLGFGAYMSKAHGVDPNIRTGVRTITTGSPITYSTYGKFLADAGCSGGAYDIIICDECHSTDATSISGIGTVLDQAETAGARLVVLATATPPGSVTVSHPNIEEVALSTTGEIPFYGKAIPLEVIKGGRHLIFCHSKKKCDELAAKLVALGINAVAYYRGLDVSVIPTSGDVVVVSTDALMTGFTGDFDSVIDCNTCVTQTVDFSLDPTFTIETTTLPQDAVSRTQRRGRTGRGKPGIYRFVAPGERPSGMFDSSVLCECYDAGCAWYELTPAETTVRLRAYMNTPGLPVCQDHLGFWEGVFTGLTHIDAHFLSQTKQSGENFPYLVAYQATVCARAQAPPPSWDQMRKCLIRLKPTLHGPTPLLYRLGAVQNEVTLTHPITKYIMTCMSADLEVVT
T2 sequence (P27958 1027-1711 C1454S/C1711G, one chain of several): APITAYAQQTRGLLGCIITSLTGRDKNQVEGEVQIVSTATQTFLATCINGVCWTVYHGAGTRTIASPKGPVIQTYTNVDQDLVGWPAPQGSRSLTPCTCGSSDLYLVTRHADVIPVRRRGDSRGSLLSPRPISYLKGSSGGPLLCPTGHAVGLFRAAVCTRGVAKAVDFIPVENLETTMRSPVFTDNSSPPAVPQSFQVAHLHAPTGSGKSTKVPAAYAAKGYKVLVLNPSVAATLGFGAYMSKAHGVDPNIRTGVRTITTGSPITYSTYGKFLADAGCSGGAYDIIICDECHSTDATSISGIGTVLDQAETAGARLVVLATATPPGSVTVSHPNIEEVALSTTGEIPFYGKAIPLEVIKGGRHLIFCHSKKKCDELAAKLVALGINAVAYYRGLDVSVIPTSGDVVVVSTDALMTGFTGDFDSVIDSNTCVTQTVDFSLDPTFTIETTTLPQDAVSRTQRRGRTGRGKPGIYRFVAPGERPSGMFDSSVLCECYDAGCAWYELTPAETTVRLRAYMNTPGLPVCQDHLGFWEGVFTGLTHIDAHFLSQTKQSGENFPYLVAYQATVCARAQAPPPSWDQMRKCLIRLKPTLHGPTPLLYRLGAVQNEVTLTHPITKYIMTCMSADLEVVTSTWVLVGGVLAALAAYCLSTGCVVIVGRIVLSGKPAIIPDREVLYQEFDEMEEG
T4 sequence (O92972 1027-1711 C1454S/C1711G, one chain of several): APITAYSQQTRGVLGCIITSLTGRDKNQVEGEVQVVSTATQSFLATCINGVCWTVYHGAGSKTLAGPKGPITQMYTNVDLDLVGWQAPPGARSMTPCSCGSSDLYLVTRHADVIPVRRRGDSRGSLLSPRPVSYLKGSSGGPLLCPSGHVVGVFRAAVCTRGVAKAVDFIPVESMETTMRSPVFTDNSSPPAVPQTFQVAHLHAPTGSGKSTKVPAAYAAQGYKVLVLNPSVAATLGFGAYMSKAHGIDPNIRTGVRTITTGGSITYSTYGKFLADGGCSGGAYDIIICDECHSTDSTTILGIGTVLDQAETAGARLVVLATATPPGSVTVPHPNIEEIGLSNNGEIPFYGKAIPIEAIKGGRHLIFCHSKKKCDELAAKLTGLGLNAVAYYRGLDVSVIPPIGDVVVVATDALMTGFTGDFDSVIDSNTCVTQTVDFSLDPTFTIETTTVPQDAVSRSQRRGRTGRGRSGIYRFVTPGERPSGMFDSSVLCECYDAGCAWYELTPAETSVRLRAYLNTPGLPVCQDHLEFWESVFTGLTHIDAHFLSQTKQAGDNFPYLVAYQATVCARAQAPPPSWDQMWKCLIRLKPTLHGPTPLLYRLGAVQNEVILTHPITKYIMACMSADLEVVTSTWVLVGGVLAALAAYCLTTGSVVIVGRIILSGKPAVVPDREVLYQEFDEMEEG
Chain of porcine pancreatic elastase (PPE) (P00772 27-266): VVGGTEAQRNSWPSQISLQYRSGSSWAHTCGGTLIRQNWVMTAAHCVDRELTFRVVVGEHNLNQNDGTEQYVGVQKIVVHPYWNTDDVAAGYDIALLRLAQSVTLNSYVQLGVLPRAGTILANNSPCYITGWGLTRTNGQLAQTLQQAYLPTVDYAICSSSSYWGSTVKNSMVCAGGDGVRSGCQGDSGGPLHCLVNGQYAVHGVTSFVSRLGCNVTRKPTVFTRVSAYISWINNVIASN

Row | Compound | EC50 [1, 8] | IC50 [2, 9] | EC50 [1, 10] | IC50 [2, 11] | other results
1 | C=C[C@@H]1C[C@]1(NC(=O)[C@@H]1C[C@@H](Oc2cc(-c3cccs3)cc(-c3ccccc3)n2)CN1C(=O)C(Nc1cc(C)cc(C)n1)C(C)C)C(=O)NS(=O)(=O)C1CC1 (single isomer, unassigned) [Compound 1A] | 65.3 nM | 14 nM | – | – | –
2 | C=C[C@@H]1C[C@]1(NC(=O)[C@@H]1C[C@@H](Oc2cc(-c3cccs3)cc(-c3ccccc3)n2)CN1C(=O)C(Nc1cc(C)cc(C)n1)C(C)C)C(=O)NS(=O)(=O)C1CC1 (single isomer, unassigned) [Compound 1B] | – | – | 100 to 1000 nM | 20 to 200 nM | –
3 | C=C[C@@H]1C[C@]1(NC(=O)[C@@H]1C[C@@H](OC(=O)N2Cc3cccc(F)c3C2)CN1C(=O)C(Nc1cc(C)cc(C)n1)C(C)C)C(=O)NS(=O)(=O)C1CC1 (single isomer, unassigned) [Compound 2A] | – | – | 14 to 100 nM | 4 to 20 nM | IC50 [3]: 2100 nM; IC50 [4]: 1.4 nM; IC50 [5]: 4600 nM; EC50 ([1]; Huh-7, replicon FRET assay, read-out: EC50 value in the replicon FRET assay): 69 nM; IC50 [6]: 1.2 nM; IC50 (human liver cathepsin B): > 100000 nM; IC50 [7]: > 100000 nM; IC50 ([2]; BMS strain, read-out: IC50 against the NS3/4A BMS strain in the enzyme assay): 8.9 nM
4 | C=C[C@@H]1C[C@]1(NC(=O)[C@@H]1C[C@@H](OC(=O)N2Cc3cccc(F)c3C2)CN1C(=O)C(Nc1cc(C)cc(C)n1)C(C)C)C(=O)NS(=O)(=O)C1CC1 (single isomer, unassigned) [Compound 2B] | 3480 nM | 135 nM | – | – | –
5 | C=C[C@@H]1C[C@]1(NC(=O)C1CC(Oc2cc(-c3ccccc3)nc3cc(OC)ccc23)CN1C(=O)[C@@H](Nc1nc(CC)cs1)C(C)(C)C)C(=O)NS(=O)(=O)C1CC1 (stereo partly shown) [Compound 3] | 14.6 nM | 4.55 nM | – | – | –
6 | C=C[C@@H]1C[C@]1(NC(=O)C1CC(Oc2cc(-c3ccccc3)nc3cc(OC)ccc23)CN1C(=O)[C@@H](Nc1nc(C(C)(C)C)cs1)C(C)(C)C)C(=O)NS(=O)(=O)C1CC1 (stereo partly shown) [Compound 4] | – | – | 14 to 100 nM | 4 to 20 nM | –
7 | C=C[C@@H]1C[C@]1(NC(=O)C1CC(Oc2cc(-c3ccccc3)nc3cc(OC)ccc23)CN1C(=O)[C@@H](Nc1nc(C(F)(F)F)cs1)C(C)(C)C)C(=O)NS(=O)(=O)C1CC1 (stereo partly shown) [Compound 5] | – | – | 14 to 100 nM | 4 to 20 nM | –
